Legend:
[1] = target: 5-hydroxytryptamine receptor 2B (Homo sapiens, UniProt P41595); assay type: cell membranes, CHO-K1, Membrane; details: for Ki: read-out: Ki; on all read-outs here: in other assays of this panel Not Active means under 50% inhibition at 10 µM
D(3) dopamine receptor = D(3) dopamine receptor (Homo sapiens, UniProt P35462); assay: DRUGMATRIX: Dopamine D3 radioligand binding (ligand: [3H] Spiperone); assay type: cell membranes, CHO, Membrane
[2] = target: Kappa-type opioid receptor (Homo sapiens, UniProt P41145); assay: DRUGMATRIX: Opiate kappa (OP2, KOP) radioligand binding (ligand: [3H] Diprenorphine); assay type: cell membranes, HEK293, Membrane; details: hek293; Not Active = under 50% inhibition at 10 µM
Sequence of Kappa-type opioid receptor (P41145 whole entry): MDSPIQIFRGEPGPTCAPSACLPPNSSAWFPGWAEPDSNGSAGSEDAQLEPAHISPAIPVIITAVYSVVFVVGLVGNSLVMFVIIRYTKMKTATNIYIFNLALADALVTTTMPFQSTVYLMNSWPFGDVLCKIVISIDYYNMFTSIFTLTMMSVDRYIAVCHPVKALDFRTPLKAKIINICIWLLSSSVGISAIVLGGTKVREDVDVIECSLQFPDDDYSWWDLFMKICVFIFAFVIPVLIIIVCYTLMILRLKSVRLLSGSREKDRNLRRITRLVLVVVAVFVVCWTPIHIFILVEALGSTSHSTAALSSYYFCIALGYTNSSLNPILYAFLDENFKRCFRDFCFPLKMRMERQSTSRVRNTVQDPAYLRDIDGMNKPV

[3] = DRUGMATRIX: Tumor Necrosis Factor (TNF), Non-Selective radioligand binding (ligand: [125I] TNF-alpha); assay type: cell membranes, Membrane; details: u-937; Not Active = under 50% inhibition at 10 µM
Calcitonin receptor = target: T1, Calcitonin receptor (Homo sapiens, UniProt P30988); assay type: cell membranes, Membrane; details: t47d; further: in other assays of this panel Not Active means under 50% inhibition at 10 µM
T1 sequence (P30988 whole entry): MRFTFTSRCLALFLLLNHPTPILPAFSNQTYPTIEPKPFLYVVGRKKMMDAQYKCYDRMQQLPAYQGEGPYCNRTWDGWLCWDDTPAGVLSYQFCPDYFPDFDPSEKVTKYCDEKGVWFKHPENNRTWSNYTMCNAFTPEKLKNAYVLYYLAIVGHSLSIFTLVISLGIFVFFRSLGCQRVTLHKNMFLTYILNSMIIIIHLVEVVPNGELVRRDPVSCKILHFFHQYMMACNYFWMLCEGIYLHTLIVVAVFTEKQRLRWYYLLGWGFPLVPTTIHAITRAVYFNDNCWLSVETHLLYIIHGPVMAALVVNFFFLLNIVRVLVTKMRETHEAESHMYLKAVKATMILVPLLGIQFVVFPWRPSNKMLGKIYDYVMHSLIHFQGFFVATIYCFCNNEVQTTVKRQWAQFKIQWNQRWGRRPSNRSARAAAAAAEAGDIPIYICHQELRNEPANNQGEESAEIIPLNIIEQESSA

[4] = target: Platelet-activating factor receptor (Homo sapiens, UniProt P25105); assay type: tissue-based; further: in other assays of this panel Not Active means under 50% inhibition at 10 µM
Sequence of Platelet-activating factor receptor (P25105 whole entry): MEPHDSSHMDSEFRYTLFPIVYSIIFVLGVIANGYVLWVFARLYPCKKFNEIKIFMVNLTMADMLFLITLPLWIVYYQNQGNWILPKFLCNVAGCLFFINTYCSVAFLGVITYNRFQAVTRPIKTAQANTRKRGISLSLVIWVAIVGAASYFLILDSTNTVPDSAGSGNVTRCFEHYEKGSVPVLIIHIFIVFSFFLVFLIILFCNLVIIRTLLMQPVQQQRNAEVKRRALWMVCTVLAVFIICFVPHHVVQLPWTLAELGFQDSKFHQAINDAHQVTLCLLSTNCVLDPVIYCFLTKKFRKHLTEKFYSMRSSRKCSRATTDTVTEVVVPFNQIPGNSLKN

Sequence of 5-hydroxytryptamine receptor 2B (P41595 whole entry): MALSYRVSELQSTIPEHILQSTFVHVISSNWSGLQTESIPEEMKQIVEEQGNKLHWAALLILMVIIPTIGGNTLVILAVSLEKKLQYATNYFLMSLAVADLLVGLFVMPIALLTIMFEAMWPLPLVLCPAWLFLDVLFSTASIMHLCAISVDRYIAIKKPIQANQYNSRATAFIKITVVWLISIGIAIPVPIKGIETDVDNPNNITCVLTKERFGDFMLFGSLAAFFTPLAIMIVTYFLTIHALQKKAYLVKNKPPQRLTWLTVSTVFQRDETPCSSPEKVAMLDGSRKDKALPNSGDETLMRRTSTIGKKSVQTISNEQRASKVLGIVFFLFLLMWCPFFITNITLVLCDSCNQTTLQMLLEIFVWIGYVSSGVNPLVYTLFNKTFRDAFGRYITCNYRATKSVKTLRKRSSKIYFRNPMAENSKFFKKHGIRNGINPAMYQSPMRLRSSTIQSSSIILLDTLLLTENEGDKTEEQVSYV
Sequence of D(3) dopamine receptor (P35462 whole entry): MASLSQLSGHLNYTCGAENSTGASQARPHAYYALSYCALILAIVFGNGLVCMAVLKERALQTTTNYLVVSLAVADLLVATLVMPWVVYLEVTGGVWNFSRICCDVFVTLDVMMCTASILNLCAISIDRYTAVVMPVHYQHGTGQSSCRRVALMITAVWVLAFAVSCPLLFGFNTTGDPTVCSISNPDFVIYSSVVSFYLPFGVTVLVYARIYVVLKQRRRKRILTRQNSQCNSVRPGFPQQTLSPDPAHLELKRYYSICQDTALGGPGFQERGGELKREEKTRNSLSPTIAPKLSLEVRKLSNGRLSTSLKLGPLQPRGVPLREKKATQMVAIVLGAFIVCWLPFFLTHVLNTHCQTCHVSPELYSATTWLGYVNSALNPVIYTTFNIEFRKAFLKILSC

| Structure (SMILES) | IC50 ([1]; cho-k1) | IC50 (D(3) dopamine receptor; cho) | IC50 [2] | IC50 [3] | Ki [3] | IC50 (Calcitonin receptor) | IC50 [4] | IC50 ([1]; read-out: IC50) [nM] | Ki [1] [nM] | Ki (D(3) dopamine receptor) [nM] | IC50 (D(3) dopamine receptor; read-out: IC50) [nM] |
| --- | --- | --- | --- | --- | --- | --- | --- | --- | --- | --- | --- |
| COc1ccc2c(c1)[C@]13CCCC[C@@H]1[C@H](C2)N(C)CC3 [DEXTROMETHORPHAN] | Not Active | Not Active | Not Active | Not Active | Not Active | Not Active | Not Active |  |  |  |  |
| CCN[C@@H]1C[C@H](N)[C@@H](O[C@H]2OC(CN)=CC[C@H]2N)[C@H](O)[C@H]1O[C@H]1OC[C@](C)(O)[C@H](NC)[C@H]1O [NETILMICIN] | Not Active | Not Active | Not Active | Not Active | Not Active | Not Active | Not Active |  |  |  |  |
| CN(C)/N=N/c1[nH]cnc1C(N)=O [DACARBAZINE] | Not Active | Not Active | Not Active | Not Active | Not Active | Not Active | Not Active |  |  |  |  |
| O=NN(CCCl)C(=O)NCCCl [CARMUSTINE] | Not Active | Not Active | Not Active | Not Active | Not Active | Not Active | Not Active |  |  |  |  |
| Oc1ccc(OCc2ccccc2)cc1 [MONOBENZONE] | Not Active | Not Active | Not Active | Not Active | Not Active | Not Active | Not Active |  |  |  |  |
| O=C1CC2(CCCC2)CC(=O)N1CCCCN1CCN(c2ncccn2)CC1 [BUSPIRONE] |  |  | Not Active | Not Active | Not Active | Not Active | Not Active | 750 | 477 | 15 | 44 |
| Nc1ccn([C@@H]2CS[C@H](CO)O2)c(=O)n1 [LAMIVUDINE] | Not Active | Not Active | Not Active | Not Active | Not Active | Not Active | Not Active |  |  |  |  |
| COc1ccc2c(c1)c(CC(=O)O)c(C)n2C(=O)c1ccc(Cl)cc1 [INDOMETHACIN] | Not Active | Not Active | Not Active | Not Active | Not Active | Not Active | Not Active |  |  |  |  |
| CC(C)[C@H]1CC[C@H](C(=O)N[C@H](Cc2ccccc2)C(=O)O)CC1 [NATEGLINIDE] | Not Active | Not Active | Not Active | Not Active | Not Active | Not Active | Not Active |  |  |  |  |
| CCCC(=O)Nc1ccc(OCC(O)CNC(C)C)c(C(C)=O)c1 (configuration not stated) [ACEBUTOLOL] | Not Active | Not Active | Not Active | Not Active | Not Active | Not Active | Not Active |  |  |  |  |
| C[C@]12CC[C@@H]3c4ccc(OC(=O)c5ccccc5)cc4CC[C@H]3[C@@H]1CC[C@@H]2O [ESTRADIOL BENZOATE] |  | Not Active | Not Active | Not Active | Not Active | Not Active | Not Active | 11600 | 7360 |  |  |
| CC1(C)O[C@@H]2C[C@H]3[C@@H]4C[C@H](F)C5=CC(=O)C=C[C@]5(C)[C@H]4[C@@H](O)C[C@]3(C)[C@]2(C(=O)CO)O1 [FLUNISOLIDE] | Not Active | Not Active | Not Active | Not Active | Not Active | Not Active | Not Active |  |  |  |  |
| CC1=C(C(=O)O)N2C(=O)[C@@H](NC(=O)[C@H](N)c3ccccc3)[C@H]2SC1 [CEPHALEXIN ANHYDROUS] | Not Active | Not Active | Not Active | Not Active | Not Active | Not Active | Not Active |  |  |  |  |
| COC(=O)C1=C(C)NC(C)=C(C(=O)OCC(C)C)C1c1ccccc1[N+](=O)[O-] (configuration not stated) [NISOLDIPINE] | Not Active | Not Active | Not Active | Not Active | Not Active | Not Active | Not Active |  |  |  |  |
| CCc1c2c(nc3ccc(OC(=O)N4CCC(N5CCCCC5)CC4)cc13)-c1cc3c(c(=O)n1C2)COC(=O)[C@]3(O)CC [IRINOTECAN] | Not Active | Not Active | Not Active | Not Active | Not Active | Not Active | Not Active |  |  |  |  |
| C[C@]12CC[C@@H]3c4ccc(O)cc4CC[C@H]3[C@@H]1CC[C@@H]2O [ESTRADIOL] | Not Active | Not Active | Not Active | Not Active | Not Active | Not Active | Not Active |  |  |  |  |

| Structure (SMILES) | IC50 ([1]; cho-k1) | IC50 (D(3) dopamine receptor; cho) | IC50 [2] | IC50 [3] | Ki [3] | IC50 (Calcitonin receptor) | IC50 [4] | IC50 ([1]; read-out: IC50) [nM] | Ki [1] [nM] | Ki (D(3) dopamine receptor) [nM] | IC50 (D(3) dopamine receptor; read-out: IC50) [nM] |
| --- | --- | --- | --- | --- | --- | --- | --- | --- | --- | --- | --- |
| C#C[C@]1(OC(C)=O)CC[C@H]2[C@@H]3CCC4=CC(=O)CC[C@@H]4[C@H]3CC[C@@]21C [NORETHINDRONE ACETATE] | Not Active | Not Active | Not Active | Not Active | Not Active | Not Active | Not Active |  |  |  |  |
| N=C(Nc1ccccc1)Nc1ccccc1 | Not Active | Not Active | Not Active | Not Active | Not Active | Not Active | Not Active |  |  |  |  |
| ClC(Cl)Cl [CHLOROFORM] | Not Active | Not Active | Not Active | Not Active | Not Active | Not Active | Not Active |  |  |  |  |
| N=C(N)NC(=O)c1nc(Cl)c(N)nc1N [AMILORIDE] | Not Active | Not Active | Not Active | Not Active | Not Active | Not Active | Not Active |  |  |  |  |
| CCN1CC(CCN2CCOCC2)C(c2ccccc2)(c2ccccc2)C1=O (configuration not stated) [DOXAPRAM] | Not Active | Not Active | Not Active | Not Active | Not Active | Not Active | Not Active |  |  |  |  |
| Cc1ccc(S(=O)(=O)NC(=O)NN2CC3CCCC3C2)cc1 (configuration not stated) [GLICLAZIDE] | Not Active | Not Active | Not Active | Not Active | Not Active | Not Active | Not Active |  |  |  |  |
| COc1cccc2c1C(=O)c1c(O)c3c(c(O)c1C2=O)C[C@@](O)(C(=O)CO)C[C@@H]3O[C@H]1C[C@H](N)[C@H](O)[C@H](C)O1 [DOXORUBICIN] | Not Active | Not Active | Not Active | Not Active | Not Active | Not Active | Not Active |  |  |  |  |
| Cn1c(=O)c2c(ncn2CC2OCCO2)n(C)c1=O [DOXOFYLLINE] | Not Active | Not Active | Not Active | Not Active | Not Active | Not Active | Not Active |  |  |  |  |
| Cc1cc2cc3c(C)cc(=O)oc3c(C)c2o1 [TRIOXSALEN] | Not Active | Not Active | Not Active | Not Active | Not Active | Not Active | Not Active |  |  |  |  |
| Cc1ncc([N+](=O)[O-])n1CCO [METRONIDAZOLE] | Not Active | Not Active | Not Active | Not Active | Not Active | Not Active | Not Active |  |  |  |  |
| OC(CCN1CCCCC1)(c1ccccc1)C1CCCCC1 (configuration not stated) [TRIHEXYPHENIDYL] | Not Active | Not Active | Not Active | Not Active | Not Active | Not Active | Not Active |  |  |  |  |
| O=C(C1CCCCC1)N1CC(=O)N2CCc3ccccc3C2C1 (configuration not stated) [PRAZIQUANTEL] | Not Active | Not Active | Not Active | Not Active | Not Active | Not Active | Not Active |  |  |  |  |
| C=C1CC[C@H](O)C/C1=C/C=C1\CCC[C@]2(C)[C@@H]([C@H](C)CCCC(C)C)CC[C@@H]12 [CHOLECALCIFEROL] | Not Active | Not Active | Not Active | Not Active | Not Active | Not Active | Not Active |  |  |  |  |
| CC(=O)OCC(=O)[C@@]1(O)CC[C@H]2[C@@H]3CCC4=CC(=O)CC[C@]4(C)[C@H]3C(=O)C[C@@]21C [CORTISONE ACETATE] | Not Active | Not Active | Not Active | Not Active | Not Active | Not Active | Not Active |  |  |  |  |
| COc1ccc2[nH]c([S+]([O-])Cc3ncc(C)c(OC)c3C)nc2c1 (configuration not stated) [OMEPRAZOLE] | Not Active | Not Active | Not Active | Not Active | Not Active | Not Active | Not Active |  |  |  |  |
| Nc1c(CC(=O)O)cccc1C(=O)c1ccc(Br)cc1 [BROMFENAC] | Not Active | Not Active | Not Active | Not Active | Not Active | Not Active | Not Active |  |  |  |  |
